Reference: patent US6355799B1, “Substituted benzene compounds, process for their preparation, and herbicidal and defoliant compositions containing them” (ISK Americas Incorporated, priority 1997, dated 2002)

Legend:
Assay type in all cases: in vivo
[1] = tested on: redroot pigweed (Amaranthus retroflexus, AMARE); test: Pre-emerge test, greenhouse herbicide activity screening; details: pre-emerge, 14 days after application, scale 0-100
Summary of the method: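 Compounds in acetone were track-sprayed at 187 l/ha, 15–1000 g ai/ha, onto sandy loam pots. Pre-emerge seeds were sown one day before spraying, with surface watering afterwards. Post-emerge plants were at the 2–3 leaf stage and sprayed with 0.25% v/v non-ionic surfactant. Injury was rated 0–100 at 14 days.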

[2] = tested on: barnyardgrass (Echinochloa crus-galli, ECHCG); test: as above; details: pre-emerge, 14 days after application, scale 0-100
Summary of the method: (§1)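 Compounds in acetone were track-sprayed at 15-1000 g ai/ha (187 l/ha) on sandy loam pots: pre-emerge one day after seeding, post-emerge at 2-3 leaf stage with 0.25% v/v non-ionic surfactant. Phytotoxicity was rated 14 days later on a 0 (no damage) to 100 (complete death) scale.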

[3] = tested on: green foxtail (Setaria viridis, SETVI); test: as above; details: pre-emerge, 14 days after application, scale 0-100
Summary of the method: as §1

[4] = tested on: ivyleaf morningglory (Ipomoea hederacea, IPOHE); test: as above; details: pre-emerge, 14 days after application, scale 0-100
Summary of the method: as §1

[5] = tested on: johnsongrass (Sorghum halepense, SORHA); test: as above; details: pre-emerge, 14 days after application, scale 0-100
Summary of the method: as §1

[6] = tested on: lambsquarters (Chenopodium album, CHEAL); test: as above; details: pre-emerge, 14 days after application, scale 0-100
Summary of the method: as §1

[7] = tested on: large crabgrass (Digitaria sanguinalis, DIGSA); test: as above; details: pre-emerge, 14 days after application, scale 0-100
Summary of the method: as §1

[8] = tested on: sicklepod (Cassia obtusifolia, CASOB); test: as above; details: pre-emerge, 14 days after application, scale 0-100
Summary of the method: as §1

[9] = tested on: velvetleaf (Abutilon theophrasti, ABUTH); test: as above; details: pre-emerge, 14 days after application, scale 0-100
Summary of the method: as §1

[10] = tested on: field corn (Zea mays L., var. Dekalb 535, CORN); test: Pre-emerge test, crop safety; details: pre-emerge, 14 days after application, scale 0-100
Summary of the method: as §1

[11] = tested on: upland rice (Oryza sp., var. Tebonnet, RICE); test: Pre-emerge test, crop safety; details: pre-emerge, 14 days after application, scale 0-100
Summary of the method: as §1

[12] = tested on: barnyardgrass (Echinochloa crus-galli, ECHCG); test: Post-emerge test, greenhouse herbicide activity screening; details: post-emerge, 14 days after application, rating scale 0-100
Summary of the method: (§2)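 Applied at 15–1000 g ai/ha from acetone in 187 l/ha spray volume. Post-emergence applications included 0.25% v/v non-ionic surfactant and reached plants sown 8–21 days before. Pre-emergence applications were incorporated by surface watering. Efficacy or crop damage was rated on a 0–100 scale after 14 days.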

[13] = tested on: common ragweed (Ambrosia artemisizfolia L., AMBEL); test: as above; details: post-emerge, 14 days after application, rating scale 0-100
Summary of the method: as §2

[14] = tested on: green foxtail (Setaria viridis, SETVI); test: as above; details: post-emerge, 14 days after application, rating scale 0-100
Summary of the method: as §2

[15] = tested on: ivyleaf morningglory (Ipomoea hederacea, IPOHE); test: as above; details: post-emerge, 14 days after application, rating scale 0-100
Summary of the method: as §2

[16] = tested on: johnsongrass (Sorghum halepense, SORHA); test: as above; details: post-emerge, 14 days after application, rating scale 0-100
Summary of the method: as §2

[17] = tested on: lambsquarters (Chenopodium album, CHEAL); test: as above; details: post-emerge, 14 days after application, rating scale 0-100
Summary of the method: as §2

[18] = tested on: large crabgrass (Digitaria sanguinalis, DIGSA); test: as above; details: post-emerge, 14 days after application, rating scale 0-100
Summary of the method: as §2

[19] = tested on: redroot pigweed (Amaranthus retroflexus, AMARE); test: as above; details: post-emerge, 14 days after application, rating scale 0-100
Summary of the method: as §2

[20] = tested on: sicklepod (Cassia obtusifolia, CASOB); test: as above; details: post-emerge, 14 days after application, rating scale 0-100
Summary of the method: as §2

[21] = tested on: velvetleaf (Abutilon theophrasti, ABUTH); test: as above; details: post-emerge, 14 days after application, rating scale 0-100
Summary of the method: as §2

[22] = tested on: field corn (Zea mays L., var. Dekalb 535, CORN); test: Post-emerge test, crop safety; details: post-emerge, 14 days after application, rating scale 0-100
Summary of the method: as §1

[23] = tested on: upland rice (Oryza sp., var. Tebonnet, RICE); test: Post-emerge test, crop safety; details: post-emerge, 14 days after application, rating scale 0-100
Summary of the method: as §1

CCSCC(=O)Nc1c(OC)c(Cl)cc(F)c1-n1c(=O)cc(C(F)(F)F)n(C)c1=O [2-172]
5: CORN phytotoxicity rating (crop damage) ([22]; 63 g ai/ha)
70: phytotoxicity rating AMARE ([1]; 63 g ai/ha)
80: phytotoxicity rating CASOB ([8]; 250 g ai/ha) | AMBEL phytotoxicity rating ([13]; 250 g ai/ha)
30: phytotoxicity rating CHEAL ([6]; 63 g ai/ha) | AMBEL phytotoxicity rating ([13]; 63 g ai/ha)
65: phytotoxicity rating SETVI ([3]; 250 g ai/ha)
20: phytotoxicity rating SETVI ([3]; 63 g ai/ha) | phytotoxicity rating DIGSA ([7]; 63 g ai/ha) | phytotoxicity rating CASOB ([8]; 63 g ai/ha)
60: phytotoxicity rating ECHCG ([2]; 250 g ai/ha) | phytotoxicity rating IPOHE ([4]; 63 g ai/ha) | CHEAL phytotoxicity rating ([17]; 250 g ai/ha) | AMARE phytotoxicity rating ([19]; 63 g ai/ha) | AMARE phytotoxicity rating ([19]; 250 g ai/ha) | ABUTH phytotoxicity rating ([21]; 63 g ai/ha)
10: phytotoxicity rating CORN (crop damage) ([10]; 250 g ai/ha) | phytotoxicity rating RICE (crop damage) ([11]; 63 g ai/ha) | SETVI phytotoxicity rating ([14]; 250 g ai/ha) | CORN phytotoxicity rating (crop damage) ([22]; 250 g ai/ha) | RICE phytotoxicity rating (crop damage) ([23]; 250 g ai/ha)
95: phytotoxicity rating IPOHE ([4]; 250 g ai/ha)
40: phytotoxicity rating SORHA ([5]; 250 g ai/ha)
50: phytotoxicity rating RICE (crop damage) ([11]; 250 g ai/ha) | CASOB phytotoxicity rating ([20]; 63 g ai/ha)
35: CHEAL phytotoxicity rating ([17]; 63 g ai/ha)
100: phytotoxicity rating AMARE ([1]; 250 g ai/ha) | phytotoxicity rating CHEAL ([6]; 250 g ai/ha) | phytotoxicity rating DIGSA ([7]; 250 g ai/ha) | phytotoxicity rating ABUTH ([9]; 250 g ai/ha) | IPOHE phytotoxicity rating ([15]; 250 g ai/ha) | ABUTH phytotoxicity rating ([21]; 250 g ai/ha)
90: phytotoxicity rating ABUTH ([9]; 63 g ai/ha) | IPOHE phytotoxicity rating ([15]; 63 g ai/ha) | CASOB phytotoxicity rating ([20]; 250 g ai/ha)
0: phytotoxicity rating ECHCG ([2]; 63 g ai/ha) | phytotoxicity rating SORHA ([5]; 63 g ai/ha) | phytotoxicity rating CORN (crop damage) ([10]; 63 g ai/ha) | ECHCG phytotoxicity rating ([12]; 63 g ai/ha) | ECHCG phytotoxicity rating ([12]; 250 g ai/ha) | SETVI phytotoxicity rating ([14]; 63 g ai/ha) | SORHA phytotoxicity rating ([16]; 63 g ai/ha) | SORHA phytotoxicity rating ([16]; 250 g ai/ha) | DIGSA phytotoxicity rating ([18]; 63 g ai/ha) | DIGSA phytotoxicity rating ([18]; 250 g ai/ha) | RICE phytotoxicity rating (crop damage) ([23]; 63 g ai/ha)
